Measurements taken from ChEMBL document CHEMBL1759896, “Asymmetric total synthesis of (+)- and (-)-clusianone and (+)- and (-)-clusianone methyl enol ether via ACC alkylation and evaluation of their anti-HIV activity” (Bioorg Med Chem Lett, 2011).
pEC50, pIC50: −log10 of the molar value. Activity calls are given as the source filed them. No cut-off for these calls is given here.

Tests used:
Assay type in all cases: functional, organism-based
[1] = test system: Human immunodeficiency virus 1; test: Antiviral activity against HIV1 Env-pseudovirus infected in mouse 3T3.T4.CCR5 cells after 2 days by luciferase assay; conditions: for pIC50: read-out: IC50
[2] = test system: Human immunodeficiency virus 1; test: Antiviral activity against HIV1 Env-pseudovirus infected in human Jurkat E6-1 cells after 2 days by luciferase assay; conditions: for pIC50: Human immunodeficiency virus 1, Jurkat, 48 h
[3] = test system: Human immunodeficiency virus 1; test: Antiviral activity against HIV1 MN infected in human C8166 cells; conditions: Human immunodeficiency virus 1, MN

## CC(C)=CC[C@H]1C[C@]2(CC=C(C)C)C(=O)[C@@](CC=C(C)C)(C(=O)C(C(=O)c3ccccc3)=C2O)C1(C)C (stereo in doubt; 2) [6-EPI-CLUSIANONE]
[1]; 3t3.t4.ccr5
  pIC50: 5.95

## Cc1cn([C@H]2C[C@H](N=[N+]=[N-])[C@@H](CO)O2)c(=O)[nH]c1=O [ZIDOVUDINE]
[2]
  pIC50: 6.92

## COC1=C(C(=O)c2ccccc2)C(=O)[C@]2(CC=C(C)C)C[C@H](CC=C(C)C)C(C)(C)C1(CC=C(C)C)C2=O
[1]; 3t3.t4.ccr5
  IC50: Not Active

## CC(C)=CC[C@H]1C[C@]2(CC=C(C)C)C(=O)[C@@](CC=C(C)C)(C(=O)C(C(=O)c3ccccc3)=C2O)C1(C)C (stereo in doubt; 2)
[2]
  Activity: Active

## CC(C)=CC[C@H]1C[C@]2(CC=C(C)C)C(=O)[C@@](CC=C(C)C)(C(=O)C(C(=O)c3ccccc3)=C2O)C1(C)C (stereo in doubt; 1) [6-EPI-CLUSIANONE]
[1]; Human immunodeficiency virus 1, 3T3.T4.CCR5, 48 h
  pIC50: 5.82
[3]
  pEC50: 7.70

## CC(C)=CC[C@H]1C[C@]2(CC=C(C)C)C(=O)[C@@](CC=C(C)C)(C(=O)C(C(=O)c3ccccc3)=C2O)C1(C)C (stereo in doubt; 1)
[2]
  Activity: Active

## Cc1ccnc2c1NC(=O)c1cccnc1N2C1CC1 [NEVIRAPINE]
[2]
  pIC50: 7.40
